Where two headings read alike, the source gives them in different places.
Experiments:
Assay type in all cases: cell-based
[1] = tested on: SARS-CoV-2 Delta variant; assay: microbe, parasite or virus in culture; conditions: Severe acute respiratory syndrome coronavirus 2; SARS-CoV-2 Delta B.1.617.1
[2] = tested on: SARS-CoV-2 Omicron BA.1 variant; assay: microbe, parasite or virus in culture; conditions: Severe acute respiratory syndrome coronavirus 2, SARS-CoV-2 Omicron B.1.1.529
[3] = tested on: SARS-CoV-2 (B1 variant); assay: microbe, parasite or virus in culture; conditions: Severe acute respiratory syndrome coronavirus 2, 48 h
[4] = tested on: SARS-CoV-2_M:A85S
[5] = tested on: SARS-CoV-2_M:W55F
[6] = tested on: SARS-CoV-2 M:A98D
[7] = tested on: SARS-CoV-2_M:L90W
[8] = tested on: SARS-CoV-2_M:L29F
[9] = tested on: SARS-CoV-2_M:Q185K
[10] = tested on: SARS-CoV-2_M:M91K
[11] = read-out: EC50, production of viral RNA
[12] = read-out: EC90, production of viral RNA

| Structure (SMILES) | EC50 [1] [nM] | EC50 [2] [nM] | EC50 [3, 11] [nM] | EC90 [3, 12] [nM] | Potency shift (EC50 fold change ± SD vs recombinant WT virus) [4] [fold change] | Potency shift (EC50 fold change ± SD vs recombinant WT virus) [5] [fold change] | Potency shift (EC50 fold change ± SD vs recombinant WT virus) [6] [fold change] | Potency shift (EC50 fold change ± SD vs recombinant WT virus) [7] [fold change] | Potency shift (EC50 fold change ± SD vs recombinant WT virus) [8] [fold change] | Potency shift (EC50 fold change ± SD vs recombinant WT virus) [9] [fold change] | Potency shift (EC50 fold change ± SD vs recombinant WT virus) [10] [fold change] | EC50 ([3]; read-out: EC50, RNA copy numbers (printed in Fig. 1c)) [nM] | EC90 ([3]; read-out: EC90, RNA copy numbers (printed in Fig. 1c)) [nM] |
| --- | --- | --- | --- | --- | --- | --- | --- | --- | --- | --- | --- | --- | --- |
| C[C@H]1Cn2ncc(C(=O)Nc3cccc(C#N)c3)c2C(=O)N1c1ccc(C(F)(F)c2ccccc2)cc1 [JNJ-9676, (S)-N-(3-cyanophenyl)-5-(4-(difluoro(phenyl)methyl)phenyl)-6-methyl-4-oxo-4,5,6,7-tetrahydropyrazolo[1,5-a]pyrazine-3-carboxamide] | 14 | 26 | 94 ± 3.4 | 132 ± 36.7 | 0.64 ± 0.21 | 0.62 ± 0.26 | 2.02 ± 0.58 | 2.47 ± 1.48 | 5.57 ± 0.42 | 5.55 ± 1.92 | 10.03 ± 3.28 | – | – |
| CC(C)(C)[C@H](NC(=O)C(F)(F)F)C(=O)N1C[C@H]2[C@@H]([C@H]1C(=O)N[C@H](C#N)C[C@@H]1CCNC1=O)C2(C)C [nirmatrelvir, reference compound] | – | – | 109 ± 55.6 | 268 ± 112 | – | – | – | – | – | – | – | 109 | 268 |

— article PMC11981937 (Nature, 2025)
